Test results published in US12268676B2, “Antiviral applications of picolinic acid and its derivatives” (INDIAN INSTITUTE OF SCIENCE, priority 2021, dated 2025).

Tested on: SARS-CoV-2 variants of concern (Alpha, Beta, Gamma, Delta)
Type: cell-based

O=C(O)c1ccccn1 [PA, pyridine-2-carboxylic acid]
viral load abrogated by: ~1 log
